Measured values reported in US11439148B2, “Pyrimidine derivatives” (SYNGENTA PARTICIPATIONS AG, priority 2017, dated 2022).
Several values for one entry are separate records, joined by “and”; a condition that tells them apart may be missing. Equal entries are not always repeated.

What was measured:
Format in all cases: in vivo
[1] = system: four weed species (ABUTH, CHEAL, DIGSA, SETVI); assay: Adjuvant efficacy with nicosulfuron, glasshouse spray test, average over all species; settings: nicosulfuron WG, mean over 15 and 60 g/ha, adjuvant 0.2% v/v (none in No Adjuvant rows), 21 days, average of ABUTH
Description: (§1) The efficacy of adjuvants 1-12 as adjuvants for the herbicide nicosulfuron were tested in a glasshouse against four weed species sown into standard soil in pots and cultivated under controlled conditions in a glasshouse (at 24/18° C. day/night; 16 hours light; 65% humidity). Nicosulfuron was added to the spray tank as a standard WG (water dispersible granule) formulation.
The spray tests were also carried out using nicosulfuron in conjunction with adjuvants 1-12. The adjuvant was added to the spray solution at a rate of 0.2% v/v. All spray solutions also contained 12.5% v/v of iso-Propanol. The weed species and their BBCH growth stage at spraying were Abutilon theophrasti (ABUTH; growth stage 13), Chenopodium album (CHEAL; growth stage 13-14), Digitaria sanguinalis (DIGSA; growth stage 11), and Setaria viridis (SETVI; growth stage 13). Each spray test was replicated three times. The test plants were then grown in a glasshouse under controlled conditions (at 24/18° C. day/night; 16 hours light; 65% humidity) and watered twice a day. The efficacy of the herbicide was assessed visually and expressed as a percentage of the leaf area killed. Samples were assessed at a time period of 21 days following application. The results shown in Table 1 below are mean averages over the two rates of nicosulfuron, and the three replicates.

[2] = system: Abutilon theophrasti (ABUTH); assay: Adjuvant efficacy with fomesafen, glasshouse spray test; settings: fomesafen sodium salt SL, mean over 100 and 200 g/ha and 3 replicates; adjuvant 0.2% v/v (none in No Adjuvant rows); % leaf area killed, 21 days after application; Tests 1-4 separate runs
Description: as §1, with “fomesafen (as the sodium salt)” for “nicosulfuron”, “species,” for “species”, “light,” for “light;”, “Fomesafen sodium salt” for “Nicosulfuron”, “SL (soluble concentrate)” for “WG (water dispersible granule)”
(§2) The spray tests were also carried out using fomesafen in conjunction with adjuvants 1-12. Unless otherwise stated, the adjuvants were added to the spray solution at a rate of 0.2% v/v. All spray solutions also contained 12.5% v/v of iso-Propanol to normalise the retention of the sprays on the hydrophobic plant surfaces. The weed species and their BBCH growth stage at spraying were Abutilon theophrasti (ABUTH; growth stage 12-13), Chenopodium album (CHEAL; growth stage 15), Ipomea hederacea (IPOHE; growth stage 12), and Setaria viridis (SETVI; growth stage 14). Each spray test was replicated three times. The test plants were then grown in a glasshouse under controlled conditions (at 24/18° C. day/night; 16 hours light; 65% humidity) and watered twice a day.
(§3) The efficacy of the herbicide was assessed visually and expressed as a percentage of the leaf area killed. Samples were assessed at a time period of 21 days following application. The results shown in Table 2 below are mean averages over the two rates of fomesafen, the three replicates […].

[3] = system: Chenopodium album (CHEAL); assay: as above; settings: fomesafen sodium salt SL, mean over 100 and 200 g/ha and 3 replicates; adjuvant 0.2% v/v (none in No Adjuvant rows); % leaf area killed, 21 days after application; Tests 1-4 separate runs
Description: as §1, with “fomesafen (as the sodium salt)” for “nicosulfuron”, “species,” for “species”, “light,” for “light;”, “Fomesafen sodium salt” for “Nicosulfuron”, “SL (soluble concentrate)” for “WG (water dispersible granule)”
as §2, §3

[4] = system: Ipomea hederacea (IPOHE); assay: as above; settings: fomesafen sodium salt SL, mean over 100 and 200 g/ha and 3 replicates; adjuvant 0.2% v/v (none in No Adjuvant rows); % leaf area killed, 21 days after application; Tests 1-4 separate runs
Description: as §1, with “fomesafen (as the sodium salt)” for “nicosulfuron”, “species,” for “species”, “light,” for “light;”, “Fomesafen sodium salt” for “Nicosulfuron”, “SL (soluble concentrate)” for “WG (water dispersible granule)”
as §2, §3

[5] = system: Setaria viridis (SETVI); assay: as above; settings: fomesafen sodium salt SL, mean over 100 and 200 g/ha and 3 replicates; adjuvant 0.2% v/v (none in No Adjuvant rows); % leaf area killed, 21 days after application; Tests 1-4 separate runs
Description: as §1, with “fomesafen (as the sodium salt)” for “nicosulfuron”, “species,” for “species”, “light,” for “light;”, “Fomesafen sodium salt” for “Nicosulfuron”, “SL (soluble concentrate)” for “WG (water dispersible granule)”
as §2, §3

[6] = system: four weed species (ABUTH, CHEAL, IPOHE, SETVI); assay: Adjuvant efficacy with fomesafen, glasshouse spray test, average over all species; settings: fomesafen sodium salt SL, mean over 100 and 200 g/ha, adjuvant 0.2% v/v (none in No Adjuvant rows), 21 days, average of ABUTH
Description: as §1, with “fomesafen (as the sodium salt)” for “nicosulfuron”, “species,” for “species”, “light,” for “light;”, “Fomesafen sodium salt” for “Nicosulfuron”, “SL (soluble concentrate)” for “WG (water dispersible granule)”
as §2, §3

[7] = system: Digitaria sanguinalis (DIGSA); assay: Adjuvant efficacy with mesotrione, glasshouse spray test; settings: mesotrione SC, mean over 30 and 60 g/ha and 3 replicates; adjuvant 0.2% v/v (none in No Adjuvant rows); % leaf area killed, 21 days after application; Tests 1-4 separate runs
Description: (§4) The efficacy of adjuvants 1-12 as an adjuvant for the herbicide mesotrione was tested in a glasshouse against four weed species sown into standard soil in pots and cultivated under controlled conditions in a glasshouse (at 24/18° C. day/night; 16 hours light; 65% humidity). Mesotrione was added to the spray tank as a standard SC (suspension concentrate) formulation.
(§5) The spray tests were also carried out using mesotrione in conjunction with adjuvants 1-12. The adjuvants were added to the spray solution at a rate of 0.2% v/v unless otherwise stated. All spray solutions also contained 10% w/w of iso-Propanol. The weed species and their BBCH growth stage at spraying were Brachiaria platyphylla (BRAPP; growth stage 13-14) or Brachiaria plantaginea (BRAPL; growth stage 13-14), Commelina benghalensis (COMBE; growth stage 13), Digitaria sanguinalis (DIGSA; growth stage 14), and Polygonum convolvulus (POLCO; growth stage 13-14). Each spray test was replicated three times.
(§6) The test plants were then grown in a glasshouse under controlled conditions (at 24/18° C. day/night; 16 hours light; 65% humidity) and watered twice a day. The efficacy of the herbicide was assessed visually and expressed as a percentage of the leaf area killed. Samples were assessed at a time period of 21 days following application. The results shown in Table 3 below are mean averages over the two rates of mesotrione and the three replicates.

[8] = system: Polygonum convolvulus (POLCO); assay: as above; settings: mesotrione SC, mean over 30 and 60 g/ha and 3 replicates; adjuvant 0.2% v/v (none in No Adjuvant rows); % leaf area killed, 21 days after application; Tests 1-4 separate runs
Description: as §4, §5, §6

[9] = system: four weed species (ALOMY, AVEFA, LOLPE, SETVI); assay: Adjuvant efficacy with pinoxaden, glasshouse spray test, average over all species; settings: pinoxaden EC, mean over 7.5 and 15 g/ha, adjuvant 0.2% v/v (none in No Adjuvant rows), 21 days, average of ALOMY
Description: as §1, with “pinoxaden” for “nicosulfuron”, “species,” for “species”, “20/16°” for “24/18°”, “Pinoxaden” for “Nicosulfuron”, “EC (emulsifiable concentrate)” for “WG (water dispersible granule)”
The spray tests were also carried out using pinoxaden in conjunction with adjuvants 1-12. The adjuvants were added to the spray solution at a rate of 0.2% v/v unless otherwise stated. All spray solutions also contained 10% w/w of iso-Propanol. The weed species and their BBCH growth stage at spraying were Avena fatua (AVEFA; growth stage 12), Lolium perenne (LOLPE; growth stage 13), Alopecurus myosuroides (ALOMY; growth stage 13), and Setaria viridis (SETVI; growth stage 13-14). Each spray test was replicated three times. The test plants were then grown in a glasshouse under controlled conditions (at 20/16° C. day/night; 16 hours light; 65% humidity) and watered twice a day. The efficacy of the herbicide was assessed visually and expressed as a percentage of the leaf area killed. Samples were assessed at a time period of 21 days following application. The results shown in Table 4 below are mean averages over the two rates of pinoxaden, and the three replicates.

Row | Structure (SMILES) | Mean % Herbicidal Activity Average over all Species [1] | Mean % Herbicidal Activity ABUTH [2] | Mean % Herbicidal Activity CHEAL [3] | Mean % Herbicidal Activity IPOHE [4] | Mean % Herbicidal Activity SETVI [5] | Mean % Herbicidal Activity Average over all Species [6] | Mean % Herbicidal Activity DIGSA [7] | Mean % Herbicidal Activity POLCO [8] | Mean % Herbicidal Activity Average over all Species [9]
1 | CCCCCCCCCCCCOc1cc(OCC(C)OCC(C)OCC(C)OC)ncn1 (stereo not drawn) [Adjuvant 12] | 85% | 74% | 80% | 98% | 77% | 82% | 84% | 98% | 70%
2 | CCCCCCCCC=CCCCCCCCCOc1cc(OCCOCCOCCOCCOCCOCCOCCOCCOCCOCCOCCOCCOCCOCCOCCOCCOCCOCCOCCOCCOC)ncn1 [Adjuvant 11] | 82% | 48% | 80% | 98% | 39% | 66% | 83% | 92% | 38%
3 | CCCCCCCCCCCCCCCCOc1cc(OCCOCCOCCOCCOCCOCCOCCOCCOCCOCCOC)ncn1 [Adjuvant 8] | 80% and 85% and 86% | 53% and 75% and 36% | 78% and 65% and 73% | 92% and 97% and 51% | 17% and 65% and 13% | 60% and 75% and 43% | 84% and 81% and 83% | 82% and 92% and 93% | 69% and 56% and 67%
4 | CCCCCCCCCOc1cc(OCCOCCOCCOCCOCCOCCOCCOC)ncn1 [Adjuvant 4] | 73% | 51% | 45% | 93% | 53% | 61% | 83% | 93% | 52%
5 | CCCCCCOc1cc(OCCOCCOC)ncn1 [Adjuvant 1] | 83% | 74% | 79% | 91% | 65% | 77% | 81% | 81% | 55%
6 | CCCCCCCCCCCCOc1cc(OCCOCCOCCOCCOCCOCCOCCOC)ncn1 [Adjuvant 6] | 71% | 31% | 80% | 64% | 25% | 50% | 83% | 84% | 63%
7 | CCCCCCCCC=CCCCCCCCCOc1cc(OCCOCCOC)ncn1 [Adjuvant 9] | 80% | 52% | 64% | 88% | 64% | 67% | 82% | 92% | 58%
8 | CCCCCCCCCOc1cc(OCCOCCOCCOCCOCCOCCOCCOCCOCCOCCOC)ncn1 [Adjuvant 5] | 63% | 60% | 55% | 64% | 49% | 57% | 72% | 94% | 41%
9 | CCCCCCCCCCCCOc1cc(OCCOCCOCCOCCOCCOCCOCCOCCOCCOCCOC)ncn1 [Adjuvant 7] | 81% | 46% | 94% | 98% | 45% | 71% | 80% | 70% | 84%
10 | CCCCCCCCC=CCCCCCCCCOc1cc(OCCOCCOCCOCCOCCOCCOCCOCCOCCOCCOC)ncn1 [Adjuvant 10] | 81% | 56% and 28% | 60% and 88% | 92% and 50% | 65% and 17% | 68% and 46% | 84% | 95% | 50%
11 | CCCCCCOc1cc(OCCOCCOCCOCCOCCOCCOCCOCCOCCOCCOCCOCCOCCOCCOCCOCCOCCOCCOCCOCCOC)ncn1 [Adjuvant 3] | 76% | 47% | 54% | 88% | 37% | 56% | 83% | 92% | 44%
